For one assay, the target named is acetylcholinesterase. To be noted: cited from earlier work; for IC50: read-out: anti-acetylcholinesterase activity IC50.
Assay [1] addresses T1, Acetylcholinesterase (AChE) (Homo sapiens, UniProt P22303).
T1 construct: purchased Sigma-Aldrich
The assay is described as follows: biochemical. To be noted: Ellman method, pH 8.0, 37 °C, absorbance at 405 nm; read-out: acetylcholinesterase inhibitory activity IC50.
Description: Acetylcholinesterase (AChE, Sigma-Aldrich, Saint Louis, MO, USA, 0.1 U/mL), acetylthiocholine iodide, dithiobisnitrobenzoic acid (DTNB), and tacrine were bought from Sigma-Aldrich.
The AChE inhibitory activity was evaluated based on the protocol developed by Ellman et al. [33]. The enzymatic reactions were conducted in 96-well microplates. The following were added to each well: 110 μL phosphate buffer (pH 8.0), 40 μL AChE, and the tested compounds (dissolved in 10 μL DMSO). The microplates were then incubated in 37 °C for 20 min. […] Then, the absorbance at 405 nm was detected after 1 h. Seven different concentrations and three replications per concentration for each compound were tested.

Assay [2] concerns murine monocytic RAW264.7 macrophage cells. Briefly: Anti-inflammatory assay: NO production by the Griess method. To be noted: LPS (0.5 µg/mL)-stimulated RAW264.7 cells, NO content. In kind it is cell-based. How it is done: The content of NO was determined by the Griess method. Briefly, the murine monocytic RAW264.7 macrophage cells in logarithmic growth phase were diluted to 1 × 10^5 cells/mL. Then, 100 µL of cell dilution was seeded into the 96-well plates and incubated overnight at 37 °C in a humid atmosphere with 5% CO2 for 24 h. The test compound and lipopolysaccharides (LPS) (Sigma) (0.5 µg/mL) were then added to each well and incubated for another 18 h. Then, 50 µL of cells culture supernatant was taken, 50 µL of the Griess reagent (reagent A and reagent B, Sigma) was added in triplicate, and NO production was evaluated in each well. After 5 min of incubation, the absorbances of samples were measured at 570 nm with Envision multilabel plate reader, and the corresponding contents were calculated by curve calibration.

The structures appear in SMILES notation.

T1 sequence (P22303 32-614, species assumed): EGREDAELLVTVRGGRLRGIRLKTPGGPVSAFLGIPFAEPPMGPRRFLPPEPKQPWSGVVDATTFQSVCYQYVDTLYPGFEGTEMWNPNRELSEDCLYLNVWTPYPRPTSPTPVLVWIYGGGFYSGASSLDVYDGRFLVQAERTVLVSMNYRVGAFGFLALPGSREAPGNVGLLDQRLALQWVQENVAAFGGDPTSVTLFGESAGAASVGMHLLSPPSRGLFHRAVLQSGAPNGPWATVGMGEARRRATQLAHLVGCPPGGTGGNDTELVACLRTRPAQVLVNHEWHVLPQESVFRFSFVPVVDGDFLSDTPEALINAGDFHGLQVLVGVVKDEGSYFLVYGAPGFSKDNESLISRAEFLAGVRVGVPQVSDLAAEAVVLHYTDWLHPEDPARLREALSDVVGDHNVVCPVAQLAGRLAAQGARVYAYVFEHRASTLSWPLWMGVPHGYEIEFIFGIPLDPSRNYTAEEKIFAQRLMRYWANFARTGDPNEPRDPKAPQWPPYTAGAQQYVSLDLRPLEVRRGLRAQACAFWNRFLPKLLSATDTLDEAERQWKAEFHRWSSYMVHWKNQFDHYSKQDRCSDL

For the compound `COC(C)(C)C(O)CCC(C)=CCOc1c2ccoc2cc2oc(=O)ccc12` (stereo not shown) [6′-hydroxy-7′-methoxybergamottin], at acetylcholinesterase, the IC50 is 13.2 µM. As to `CCCCC[C@@H]1Cc2cc(O)c(C(=O)O)c(O)c2[C@@H](c2[nH]c3ccccc3c2CC(=O)OC)O1` [Compound 1, Penisimplicin A], the IC50 in assay [1] amounted to 6.35 µM. For the same compound, the “bioactivity in a panel of biological activity assays, including anti-inflammatory activity” value in assay [2] is reported as “devoid of any bioactivities”. In the case of `CCCCCC(O)Cc1cc(O)c(C(=O)O)c(O)c1C1CCC2C(=O)NC(CC(C)C)C(=O)N21` (stereo not shown) [Compound 2, Penisimplicin B], the “bioactivity in a panel of biological activity assays, including anti-inflammatory activity” value in assay [2] is “devoid of any bioactivities”. As for `C=C1CCC[C@@]2(C)C[C@@]3([C@@]45C[C@]6(C)CCCC(=C)[C@H]6CC4=C(C)C(=O)O5)OC(=O)C(C)=C3C[C@H]12` [biatractylolide], the “anti-acetylcholinesterase activity IC50” value on acetylcholinesterase is 6.5458 µg/mL.

Take `COC1=CC(=O)c2c(O)c3c(c(-c4c(OC)cc5c(c4O)C(=O)c4c(O)cc(C)cc4C5=O)c2C1=O)C[C@@H](C)O[C@H]3C` [floribundiquinone B]: the “anti-acetylcholinesterase activity IC50” value on acetylcholinesterase was 5.95 µg/mL.

As for `CC(C)=CCOc1c2ccoc2cc2oc(=O)ccc12` [isoimperatorin], the IC50 on acetylcholinesterase was 23.1 µM.
